Reference: patent publication US9630962B2, “4-amino-6-(2,6-dichlorophenyl)-2-(phenylamino)-pyrido[2,3-d]pyrimidin-7(8H)-one derivatives, synthesis and uses thereof” (INSTITUT QUÍMIC DE SARRIÁ, CETS FUNDACIÓ PRIVADA, priority 2013, dated 2017)
Like-named read-outs stand apart in the source and are kept apart here.

Experiments:
Assay type in all cases: cell-based
phospho-Syk = assay: Western blot of BCR kinase phosphorylation in NHL cell lines; details: 6 h, UPN-1, JVM-13, DoHH-2, SUDHL-16 cells
Method: (§1) Analysis of B-Cell Receptor (BCR) activation signaling molecules by Western Blot and flow cytometry. Total protein extracts in 1% Triton X-100 plus protease and phosphatase inhibitors were made from cells treated with a range of doses of the indicated compound (0.1, 1, 5 and 10 μM). These cells lysates were resolved by standard SDS-PAGE (sodium dodecyl sulfate polyacrylamide gel electrophoresis), transferred to PVDF (polyvinylidene difluoride) membranes and incubated overnight with the indicated primary antibodies (pSyk, pLyn and β-actin) followed by species-matched secondary horseradish peroxidase (HRP)-labelled antibodies. Chemiluminiscence was developed adding ECL (enhanced chemilumiscence) reagent and signal was captured in a LAS4000 device using Image Gauge software (Fujifilm). Intracellular amount of PhosphoY223-Btk was determined by inmunostaining with an anti-phosphoY223-Btk-PE antibody (clone N35-86), using IgG1 K isotype-PE as negative control (BD Biosciences). After the different treatments, cells (5×10^5) were fixed in 4% paraformaldehyde in PBS (15 min, 4° C.), permeabilized with cold methanol (10 min, −20° C.), washed with PBS containing 1% BSA and incubated with the indicated antibodies at room temperature for 15 min. Finally, cells were washed with PBS containing 1% BSA, resuspended in 500 μl PBS and analyzed by flow cytometry in an Attune acoustic focusing cytometer (Life Technologies). The Mean Fluorescence Ratio (MFIR) between the mean fluorescence intensity of Btk-PE signal and isotypic control was then calculated for both untreated and treated conditions. These MFIR were then referred to the untreated control (r).
(§2) To further assess the inhibitory effect of 4-amino-6-(2,6-dichlorophenyl)-8-methyl-2-(4-(4-methylpiperazin-1-yl)phenylamino)pyrido[2,3-d]pyrimidin-7(8H)-one (Example 5) on the activity of BCR kinases, a set of 4 cell lines representative of each entity was exposed for 6 h to increased doses of 4-amino-6-(2,6-dichlorophenyl)-8-methyl-2-(4-(4-methylpiperazin-1-yl)phenylamino)pyrido[2,3-d]pyrimidin-7(8H)-one (Example 5) and cell contents in phospho-Syk and phospho-Lyn were analysed by SDS-PAGE and western blotting with specific antibodies, using β-actin as a loading control. […] For the evaluation of phospho-Btk protein levels, cell lines were treated as above with a 5 μM dose of the compound and stained with an anti-phospho-Btk phycoerythin(PE)-labeled antibody followed by flow cytometry analysis.

phospho-Lyn = assay: as above; details: 6 h, UPN-1, JVM-13, DoHH-2, SUDHL-16 cells
Method: as §1, §2

PhosphoY223-Btk = assay: Flow cytometry of intracellular PhosphoY223-Btk; details: 5 μM, 6 h
Method: as §1, with “After the different treatments, cells (5×10^5) were fixed in 4% paraformaldehyde in PBS (15 min, 4° C.), permeabilized with cold methanol (10 min, −20° C.), washed with PBS containing 1% BSA and incubated with the indicated antibodies at room temperature for 15 min.” left out, “These MFIR were then referred to the untreated control (r).” left out
To further assess the inhibitory effect of 4-amino-6-(2,6-dichlorophenyl)-8-methyl-2-(4-(4-methylpiperazin-1-yl)phenylamino)pyrido[2,3-d]pyrimidin-7(8H)-one (Example 5) on the activity of BCR kinases, a set of 4 cell lines representative of each entity was exposed for 6 h to increased doses of 4-amino-6-(2,6-dichlorophenyl)-8-methyl-2-(4-(4-methylpiperazin-1-yl)phenylamino)pyrido[2,3-d]pyrimidin-7(8H)-one (Example 5) and cell contents in phospho-Syk and phospho-Lyn were analysed by SDS-PAGE and western blotting with specific antibodies, using β-actin as a loading control. […]

CLL cell lines = assay: MTT proliferation assay, growth inhibition; details: n = 3 cell lines
Method: (§3) Cell culture: cell lines were grown in suitable culture media at 37° C. in a humidified atmosphere containing 5% CO2. The following MCL cell lines were used in the assays: Rec-1, HBL-2, UPN-1, Jeko-1, JVM-2, Maver-1, Mino, Granta-519, and Z-138. The following CLL cell lines were used in the assays: MEC-2, JVM-13, and MEC-1. The following FL cell lines were used in the assays: DoHH-2, WSU-NHL, WSU-FSCCL, and SC-1. The following DLBCL cell lines were used in the assays: OCI-LY8, SUDHL-8, U-2932, and SUDHL-16. The following media were used for the indicated cell lines: RPMI 1640+10% foetal bovine serum (FBS) for Rec-1, HBL-2, UPN-1, JVM-2, MAVER, Z138, Mino, JVM-13, WSU-NHL, WSU-FSCCL, DOHH2, SC-1 and U2932; RPMI 1640+20% FBS for Jeko-1, SUDHL-8 and SUDHL-16; DMEM+10% FBS for Granta-519; IMDM+10% FBS for MEC-1 and MEC-2; IMDM+20% FBS for OCI-LY8.
(§4) Analysis of the growth inhibition is carried out using the MTT (Thiazolyl Blue Tetrazolium Bromide) proliferation assay: cells grown in exponential phase were seeded in 96 well plates at 0.5×10^6 cell/ml and treated with 4-amino-6-(2,6-dichlorophenyl)-8-methyl-2-(4-(4-methylpiperazin-1-yl)phenylamino)pyrido[2,3-d]pyrimidin-7(8H)-one (Example 5) at the doses of 0.5, 1.5, 10, 20, 50 and 100 μM. After 24 h or 48 h, MTT reagent was added to each well, incubated for 2 h and plates were then read in a Synergy-HT Multi-Mode Microplate Reader (Biotek).

DLBCL cell lines = assay: MTT proliferation assay, growth inhibition; details: n = 4 cell lines
Method: as §3, §4

MCL cell lines = assay: MTT proliferation assay, growth inhibition; details: N9, n = 9 cell lines
Method: as §3, §4

[1] = system: panel of 20 NHLs cell lines; assay: MTT proliferation assay, growth inhibition; details: all tested cell lines
Method: as §3, §4

FL cell lines = assay: MTT proliferation assay, growth inhibition; details: n = 4 cell lines
Method: as §3, §4

[2] = 24 h, read-out: GI50 range at 24 h
[3] = 24 h, read-out: Mean GI50 at 24 h
[4] = 48 h, read-out: GI50 range at 48 h
[5] = 48 h, read-out: Mean GI50 at 48 h

Q: Which Syk phosphorylation inhibition (phospho-Syk; 1 μM) does the source give for `CN1CCN(c2ccc(Nc3nc(N)c4cc(-c5c(Cl)cccc5Cl)c(=O)n(C)c4n3)cc2)CC1` [Example 5, 4-amino-6-(2,6-dichlorophenyl)-8-methyl-2-(4-(4-methylpiperazin-1-yl)phenylamino)pyrido[2,3-d]pyrimidin-7(8H)-one] here?
A: already detectable

Q: What about the Syk phosphorylation inhibition (phospho-Syk; 5 μM) of the same molecule?
A: significantly enhanced

Q: And the Syk phosphorylation inhibition (phospho-Syk; 10 μM)?
A: almost completely achieved

Q: What about the Lyn phosphorylation inhibition (phospho-Lyn; 1 μM) of the same molecule?
A: already detectable

Q: And the Lyn phosphorylation inhibition (phospho-Lyn; 5 μM)?
A: significantly enhanced

Q: What about the Lyn phosphorylation inhibition (phospho-Lyn; 10 μM) of the same molecule?
A: almost completely achieved

Q: And the “downregulation of phospho-Btk (decrease of mean fluorescence intensity ratio)” value (PhosphoY223-Btk; DoHH-2 cells)?
A: 60%

Q: And the “downregulation of phospho-Btk (decrease of mean fluorescence intensity ratio)” value (PhosphoY223-Btk; JVM-13 cells)?
A: 60%

Q: What about the “downregulation of phospho-Btk (decrease of mean fluorescence intensity ratio)” value (PhosphoY223-Btk; UPN-1 cells) of the same molecule?
A: 30%

Q: And the GI50 (CLL cell lines; [2])?
A: 5.3 to 6.8 µM

Q: And the GI50 (CLL cell lines; [3])?
A: 5.9 µM

Q: What about the GI50 (CLL cell lines; [4]) of the same molecule?
A: 4.5 to 5.5 µM

Q: What about the GI50 (CLL cell lines; [5]) of the same molecule?
A: 4.9 µM

Q: What about the GI50 (DLBCL cell lines; [2]) of the same molecule?
A: 4.3 to 6.9 µM

Q: And the GI50 (DLBCL cell lines; [3])?
A: 5.4 µM

Q: And the GI50 (DLBCL cell lines; [4])?
A: 3.8 to 7.2 µM

Q: What about the GI50 (DLBCL cell lines; [5]) of the same molecule?
A: 5 µM

Q: And the GI50 (MCL cell lines; [2])?
A: 1.3 to 5.9 µM

Q: What about the GI50 (MCL cell lines; [3]) of the same molecule?
A: 3.6 µM

Q: What about the GI50 (MCL cell lines; [4]) of the same molecule?
A: 2.2 to 3.6 µM

Q: And the GI50 (MCL cell lines; [5])?
A: 3 µM

Q: What about the GI50 ([1]; 24 h, read-out: GI50 mean) of the same molecule?
A: 4.3 µM

Q: What about the GI50 ([1]; 24 h, read-out: GI50 range) of the same molecule?
A: 1.3 to 6.9 µM

Q: And the GI50 ([1]; 48 h, read-out: GI50 mean)?
A: 3.6 µM

Q: And the GI50 ([1]; 48 h, read-out: GI50 range)?
A: 1.4 to 7.2 µM

Q: And the GI50 (FL cell lines; [2])?
A: 2.6 to 4.9 µM

Q: And the GI50 (FL cell lines; [3])?
A: 3.7 µM

Q: What about the GI50 (FL cell lines; [4]) of the same molecule?
A: 1.4 to 4.4 µM

Q: And the GI50 (FL cell lines; [5])?
A: 2.7 µM
